# Reference: patent publication US8765684B2, “Solid materials of {[(2S,5R,8S,11S)-5-benzyl-11-(3-guanidino-propyl)-8-isopropyl-7-methyl-3,6,9,12,15-pentaoxo-1,4,7,10,13-pentaaza-cyclopentadec-2-yl]-acetic acid} and methods for obtaining them” (Merck Patent GmbH, priority 2009, dated 2014)
# “And” between values parts separate entries of the source, which are not always exact repeats. Equal entries are not always repeated.
# Assays:
# [1] = Competitive slurry conversion of pseudopolymorphic form and form A1 (1:1) in Water/Methanol and Water/Ethanol mixtures; type: physicochemical; details: 1:1 pseudopolymorphic form + A1
# Experimental: b) Additionally, crystalline tetrasolvates according invention and especially crystalline forms S1 and S2 can be manufactured by competitive slurry conversion experiments with a mixture of a pseudopolymorphic form (for example S1, S2, S3 or mixtures of these) with form A1 (1:1) in Water/Methanol and Water/Ethanol mixtures with different alcohol contents at different temperatures, respectively.
# Approx. 20 mg of a pseudopolymorphic form (for example S1, S2, S3 or mixtures of these) and 20 mg of form A1 of Cilengitide are dispersed in 300 μl Water/alcohol mixture at 0° C. or room temperature (25° C.). The dispersion is stirred for 24 h and additionally for 3 weeks at RT (25° C.) (long-term experiment) by a magnetic stirrer and finally filtered
# Approx. 20 mg of a pseudopolymorphic form (for example S1, S2, S3 or mixtures of these) and 20 mg of form A1 of Cilengitide are dispersed in 300 μl Water/alcohol mixture at 50° C. The dispersion is stirred for 24 h by a magnetic stirrer and finally filtered.
# Additionally form A1 can be manufactured by competitive slurry conversion experiments with a mixture of a pseudopolymorphic form (for example S1, S2, S3 or mixtures of these) and form A1 (1:1) in Water/Methanol and Water/Ethanol mixtures with different alcohol contents at different temperatures. In the following table the conditions for the experiments leading to the pure form A1 are listed.
# Approx. 20 mg of a pseudopolymorphic form (for example S1, S2, S3 or mixtures of these) and 20 mg of form A1 of Cilengitide are dispersed in 300 μl Water/alcohol mixture at 0° C., room temperature and 50° C. The dispersion is stirred for 24 h and additionally for 3 weeks at RT (25° C.) (long-term experiment) by a magnetic stirrer and finally filtered.
# [2] = type: physicochemical
# Experimental: In the respective dynamic vapor sorption experiments discussed in more detail herein using ethanol vapor at 98% relative saturation for the Dihydrate-diethanolate/crystalline form S2 at 25° C. starting with the tetrahydrate a mass gain of 17% has been obtained. This is in good agreement with the above shown results for the tetraethanolate (calculated 117.0%, i.e. 17.0% of mass gain). Preferably, the tetrasolvates according to the invention, more preferably the Dihydrate-diethanolate, the Dihydrate-ethanolate, the Dihydrate-monoethanolate, the Diethanolate and/or the desolvates thereof, and especially the crystalline form S2 can be characterised, alternatively or additionally, by dynamic vapour experiments using water vapour and/or methanol vapour. The results can be obtained by standard techniques as described in Rolf Hilfiker, ‘Polymorphism in the Pharmaceutical Industry’, Wiley-VCH. Weinheim 2006 (Chapter 9: Water Vapour Sorption, and references therein). […] Upon water vapour adsorption, an assembly of water molecules in the lattice is observed, with a maximum weight gain of approx. 6.4 wt % at elevated rh. In the second desorption cycle a total mass loss of approx. 9.2 wt % is observed. For a Dihydrate Di-Ethanolate of the compound of formula I, the calculated Ethanol content equals 12.5 wt %. […] Thus, crystalline form S2 is a crystalline Ethanol solvate form or a mixed water/ethanol solvate form, preferably selected from the Dihydrate-ethanolate, the Dihydrate-monoethanolate, the Diethanolate and/or the desolvates thereof, which can be obtained e.g. via Ethanol Vapour Sorption, preferably via Ethanol Vapour Sorption starting with a hydrate structure, such as the hydrates according to the invention and especially the tetrahydrate according to the invention, i.e. crystalline form S3. From the Ethanol Vapour Sorption curve as shown in FIG. 21 and as discussed above, it can be seen that at elevated Ethanol partial pressure, approx. 17 wt % Ethanol are taken up by the sample.
# [3] = Conditioning of amorphous Cilengitide under mixed water-ethanol atmospheres (stoichiometry by KF, HS-GC, NMR); type: physicochemical
# Text: Stoichiometries as determined by Karl-Fischer titration (KF) for quantification of water and head space gas-chromatography (HS-GC) (and nuclear magnetic resonance spectroscopy (NMR)) for quantification of ethanol are depicted in Table 3. In the table also points representing stochiometries with more than 4 molecules of water per molecule of Cilengitide are visible. As there is no space for more than 4 molecules of water in the crystal lattice excess amounts of more than 4 molecules of water represent adsorbed moisture.
# Also the modifications and the lattice parameters from indexing of the diffractograms are compiled in Table 3.
# [4] = per 1 mol Cil, EtOH liquid phase 10 v %
# [5] = per 1 mol Cil, EtOH liquid phase 20 v %
# [6] = per 1 mol Cil, EtOH liquid phase 50 v %
# [7] = per 1 mol Cil, EtOH liquid phase 70 v %
# [8] = per 1 mol Cil, EtOH liquid phase 80 v %
# [9] = per 1 mol Cil, EtOH liquid phase 85 v %
# [10] = per 1 mol Cil, EtOH liquid phase 90 v %
# [11] = per 1 mol Cil, EtOH liquid phase 95 v %
# [12] = per 1 mol Cil, EtOH liquid phase 100 v %
substance,measurement,setting,value
cyclo-(Arg-Gly-Asp-DPhe-NMe-Val) [crystalline form S2],Ethanol in the mixture with Water leading to form S2,[1]; 0° C. for 1 day,20-80 v %
same,Ethanol in the mixture with Water leading to form S2,[1]; RT for 3 weeks,40-70 v %
same,Ethanol in the mixture with Water leading to form S2,[1]; RT for 1 day,40-80 v %
same,Thermodynamic stability of the form,[2],thermodynamically stable form
same,Ethanol taken up by the sample,"[2]; elevated Ethanol partial pressure, starting with a hydrate structure",approx. 17 wt %
same,Mass gain,"[2]; ethanol vapor at 98% relative saturation, 25° C., starting with the tetrahydrate",17%
same,EtOH HS-GC,[3]; EtOH liquid phase 10 v %,3.2 wt %
same,H2O KF,[3]; EtOH liquid phase 10 v %,9.5 wt %
same,Σ TG,[3]; EtOH liquid phase 10 v %,12.5 wt %
same,EtOH HS-GC,[3]; EtOH liquid phase 20 v %,4.3 wt %
same,H2O KF,[3]; EtOH liquid phase 20 v %,8.4 wt %
same,Σ TG,[3]; EtOH liquid phase 20 v %,13.0 wt %
same,EtOH HS-GC,[3]; EtOH liquid phase 50 v %,6.9 wt % and 6.2 wt %
same,H2O KF,[3]; EtOH liquid phase 50 v %,7.8 wt % and 6.8 wt %
same,Σ TG,[3]; EtOH liquid phase 50 v %,13.7 wt % and 12.6 wt %
same,EtOH HS-GC,[3]; EtOH liquid phase 70 v %,6.4 wt %
same,H2O KF,[3]; EtOH liquid phase 70 v %,6.2 wt %
same,Σ TG,[3]; EtOH liquid phase 70 v %,12.4 wt %
same,EtOH HS-GC,[3]; EtOH liquid phase 80 v %,6.7 wt %
same,H2O KF,[3]; EtOH liquid phase 80 v %,5.9 wt %
same,Σ TG,[3]; EtOH liquid phase 80 v %,12.8 wt %
same,EtOH HS-GC,[3]; EtOH liquid phase 85 v %,9.1 wt %
same,H2O KF,[3]; EtOH liquid phase 85 v %,4.1 wt %
same,Σ TG,[3]; EtOH liquid phase 85 v %,12.9 wt %
same,EtOH HS-GC,[3]; EtOH liquid phase 90 v %,12.5 wt %
same,H2O KF,[3]; EtOH liquid phase 90 v %,1.7 wt % and 1.2 wt %
same,Σ TG,[3]; EtOH liquid phase 90 v %,13.8 wt % and 13.6 wt %
same,EtOH HS-GC,[3]; EtOH liquid phase 95 v %,13.1 wt %
same,H2O KF,[3]; EtOH liquid phase 95 v %,0.4 wt %
same,Σ TG,[3]; EtOH liquid phase 95 v %,13.7 wt %
same,EtOH HS-GC,[3]; EtOH liquid phase 100 v %,13.6 wt %
same,H2O KF,[3]; EtOH liquid phase 100 v %,0.7 wt %
same,Σ TG,[3]; EtOH liquid phase 100 v %,14.0 wt %
same,EtOH HS-GC,[3]; [4],0.5 mol
same,EtOH NMR,[3]; [4],0.5 mol
same,H2O KF,[3]; [4],3.6 mol
same,EtOH HS-GC,[3]; [5],0.6 mol
same,EtOH NMR,[3]; [5],0.7 mol
same,H2O KF,[3]; [5],3.1 mol
same,EtOH HS-GC,[3]; [6],1.0 mol and 0.9 mol
same,EtOH NMR,[3]; [6],1.0 mol
same,H2O KF,[3]; [6],3.0 mol and 2.5 mol
same,EtOH HS-GC,[3]; [7],0.9 mol
same,H2O KF,[3]; [7],2.3 mol
same,EtOH HS-GC,[3]; [8],1.0 mol
same,H2O KF,[3]; [8],2.2 mol
same,EtOH HS-GC,[3]; [9],1.3 mol
same,H2O KF,[3]; [9],1.5 mol
same,EtOH HS-GC,[3]; [10],1.9 mol
same,H2O KF,[3]; [10],0.6 mol and 0.5 mol
same,EtOH HS-GC,[3]; [11],1.9 mol
same,H2O KF,[3]; [11],0.2 mol
same,EtOH HS-GC,[3]; [12],2.0 mol
same,EtOH NMR,[3]; [12],2.0 mol
same,H2O KF,[3]; [12],0.3 mol
